Consider four compounds from ChEMBL document CHEMBL1122295, “Modified steroid hormones. 7. 4-Fluoro-17 beta-estradiol: carbon-13 nuclear magnetic resonance, crystal and molecular structure, and biological activity” (1983).

Type in all cases: functional
The species named for experiment [1] is Rattus norvegicus. The experiment in a line: Effect on the tumor incidence was determined in DMBA treated rats on day 150 (3 rats with tumors out of 10 rats).
Experiment [2] is filed under the species Rattus norvegicus. The experiment in a line: Effect on the tumor incidence was determined in DMBA treated rats on day 6 (5 rats with tumors out of 10 rats).
For experiment [3], the species on record is Rattus norvegicus. The experiment in a line: Effect on the tumor incidence was determined in DMBA treated rats on day 30 (1 rats with tumors out of 10 rats).
The species entered for experiment [4] is Rattus norvegicus. The experiment in a line: Effect on the average tumor mass was determined in DMBA treated rats on day 30 (1 rats with tumors out of 10 rats).
For experiment [5], the species on record is Rattus norvegicus. Nature of the experiment: Effect on the average tumor mass was determined in DMBA treated rats on day 1 (5 rats with tumors out of 10 rats).
Experiment [6] is filed under the species Rattus norvegicus. The experiment in a line: Effect on the average tumor number was determined in DMBA treated rats on day 30 (1 rats with tumors out of 10 rats).
The species entered for experiment [7] is Rattus norvegicus. Nature of the experiment: Effect on the average tumor number was determined in DMBA treated rats on day 6 (5 rats with tumors out of 10 rats).
Experiment [8] is filed under the species Rattus norvegicus. Nature of the experiment: Effect on the average tumor number was determined in DMBA treated rats on day 8 (3 rats with tumors out of 10 rats).
The species entered for experiment [9] is Rattus norvegicus. The experiment in a line: Effect on the average tumor number was determined in DMBA treated rats on day 1 (5 rats with tumors out of 10 rats).
For experiment [10], the species on record is Rattus norvegicus. Nature of the experiment: Effect on the tumor incidence was determined in DMBA treated rats on day 1 (5 rats with tumors out of 10 rats).
For experiment [11], the species on record is Rattus norvegicus. Nature of the experiment: Effect on the tumor incidence was determined in DMBA treated rats on day 8 (3 rats with tumors out of 10 rats).
Experiment [12] is filed under the species Rattus norvegicus. Nature of the experiment: Effect on the average tumor mass was determined in DMBA treated rats on day 150 (3 rats with tumors out of 10 rats).
For experiment [13], the species on record is Rattus norvegicus. The experiment in a line: Effect on the average tumor mass was determined in DMBA treated rats on day 8 (3 rats with tumors out of 10 rats).
Experiment [14] is filed under the species Rattus norvegicus. Nature of the experiment: Effect on the average tumor number was determined in DMBA treated rats on day 150 (3 rats with tumors out of 10 rats).
The species named for experiment [15] is Rattus norvegicus. The experiment in a line: Effect on the average tumor mass was determined in DMBA treated rats on day 6 (5 rats with tumors out of 10 rats).
The species entered for experiment [16] is Rattus norvegicus. The experiment in a line: Effect on the tumor incidence was determined in DMBA treated rats on day 150 (2 rats with tumors out of 10 rats).
The species entered for experiment [17] is Rattus norvegicus. Nature of the experiment: Effect on the average tumor number was determined in DMBA treated rats on day 30 (3 rats with tumors out of 10 rats).
Experiment [18] is filed under the species Rattus norvegicus. The experiment in a line: Effect on the tumor incidence was determined in DMBA treated rats on day 30 (3 rats with tumors out of 10 rats).
The species entered for experiment [19] is Rattus norvegicus. The experiment in a line: Effect on the average tumor mass was determined in DMBA treated rats on day 30 (3 rats with tumors out of 10 rats).
The species named for experiment [20] is Rattus norvegicus. The experiment in a line: Effect on the average tumor mass was determined in DMBA treated rats on day 8 (4 rats with tumors out of 10 rats).
The species entered for experiment [21] is Rattus norvegicus. Nature of the experiment: Effect on the average tumor number was determined in DMBA treated rats on day 8 (4 rats with tumors out of 10 rats).
The species entered for experiment [22] is Rattus norvegicus. Nature of the experiment: Effect on the average tumor number was determined in DMBA treated rats on day 150 (2 rats with tumors out of 10 rats).
For experiment [23], the species on record is Rattus norvegicus. The experiment in a line: Effect on the average tumor mass was determined in DMBA treated rats on day 150 (2 rats with tumors out of 10 rats).
Experiment [24] is filed under the species Rattus norvegicus. The experiment in a line: Effect on the tumor incidence was determined in DMBA treated rats on day 8 (4 rats with tumors out of 10 rats).
For experiment [25], the species on record is Rattus norvegicus. The experiment in a line: Effect on the average tumor mass was determined in DMBA treated rats on day 150 (9 rats with tumors out of 10 rats).
The species entered for experiment [26] is Rattus norvegicus. Nature of the experiment: Effect on the average tumor number was determined in DMBA treated rats on day 30 (9 rats with tumors out of 10 rats).
For experiment [27], the species on record is Rattus norvegicus. Nature of the experiment: Effect on the tumor incidence was determined in DMBA treated rats on day 150 (9 rats with tumors out of 10 rats).
Experiment [28] is filed under the species Rattus norvegicus. Nature of the experiment: Effect on the average tumor number was determined in DMBA treated rats on day 150 (9 rats with tumors out of 10 rats).
The species entered for experiment [29] is Rattus norvegicus. The experiment in a line: Effect on the average tumor mass was determined in DMBA treated rats on day 30 (9 rats with tumors out of 10 rats).
The species named for experiment [30] is Rattus norvegicus. The experiment in a line: Effect on the tumor incidence was determined in DMBA treated rats on day 30 (9 rats with tumors out of 10 rats).
The species named for experiment [31] is Rattus norvegicus. The experiment in a line: Effect on the average tumor number was determined in DMBA treated rats on day 6 (4 rats with tumors out of 10 rats).
The species entered for experiment [32] is Rattus norvegicus. The experiment in a line: Effect on the average tumor mass was determined in DMBA treated rats on day 150 (10 rats with tumors out of 10 rats).
Experiment [33] is filed under the species Rattus norvegicus. Nature of the experiment: Effect on the average tumor number was determined in DMBA treated rats on day 30 (10 rats with tumors out of 10 rats).
Experiment [34] is filed under the species Rattus norvegicus. The experiment in a line: Effect on the tumor incidence was determined in DMBA treated rats on day 6 (4 rats with tumors out of 10 rats).
Experiment [35] is filed under the species Rattus norvegicus. The experiment in a line: Effect on the average tumor mass was determined in DMBA treated rats on day 6 (4 rats with tumors out of 10 rats).
The species entered for experiment [36] is Rattus norvegicus. Nature of the experiment: Effect on the average tumor number was determined in DMBA treated rats on day 150 (10 rats with tumors out of 10 rats).
The species entered for experiment [37] is Rattus norvegicus. Nature of the experiment: Effect on the average tumor mass was determined in DMBA treated rats on day 30 (10 rats with tumors out of 10 rats).
The species named for experiment [38] is Rattus norvegicus. Nature of the experiment: Effect on the tumor incidence was determined in DMBA treated rats on day 150 (10 rats with tumors out of 10 rats).
The species entered for experiment [39] is Rattus norvegicus. The experiment in a line: Effect on the tumor incidence was determined in DMBA treated rats on day 30 (10 rats with tumors out of 10 rats).

Values joined by “and” are separate entries in the source; they are usually repeats but may differ in a detail not shown here. Equal entries are not always repeated.

As to `CC(C)[C@@H]1C(=O)N2CCC[C@H]2[C@]2(O)O[C@](NC(=O)[C@@H]3C=C4c5cccc6[nH]cc(c56)C[C@H]4N(C)C3)(C(C)C)C(=O)N12.C[C@]12CC[C@@H]3c4ccc(O)c(F)c4CC[C@H]3[C@@H]1CC[C@@H]2O.O=C(O)/C=C\C(=O)O`, the Total tumors is given as 3 in the experiment filed under Rattus norvegicus [1]; 5 in the experiment filed under Rattus norvegicus [2]; 1 in the experiment filed under Rattus norvegicus [3]; 6 in the experiment listed under Rattus norvegicus [10]; 3 in the experiment filed under Rattus norvegicus [11]. The Tumor mass in the experiment filed under Rattus norvegicus [4] amounted to 0.3 g; in the experiment listed under Rattus norvegicus [5], 0.4 g; in the experiment listed under Rattus norvegicus [12] it was 2.7 g; in the experiment listed under Rattus norvegicus [13], 0.2 g; in the experiment filed under Rattus norvegicus [15], 0.2 g. Besides, the Tumor number worked out at 1 in the experiment filed under Rattus norvegicus [6]; 1 in the experiment listed under Rattus norvegicus [7]; 1 in the experiment listed under Rattus norvegicus [8]; 1.2 in the experiment listed under Rattus norvegicus [9]; 1 in the experiment filed under Rattus norvegicus [14].

Turning to `CC(=O)[C@H]1CC[C@H]2[C@@H]3CCC4=CC(=O)CC[C@]4(C)[C@H]3CC[C@]12C.CC(C)[C@@H]1C(=O)N2CCC[C@H]2[C@]2(O)O[C@](NC(=O)[C@@H]3C=C4c5cccc6[nH]cc(c56)C[C@H]4N(C)C3)(C(C)C)C(=O)N12.C[C@]12CC[C@@H]3c4ccc(O)c(F)c4CC[C@H]3[C@@H]1CC[C@@H]2O.O=C(O)/C=C\C(=O)O`, the Total tumors is 5 in the experiment listed under Rattus norvegicus [16]; 3 in the experiment filed under Rattus norvegicus [1]; 7 in the experiment filed under Rattus norvegicus [2]; 1 in the experiment filed under Rattus norvegicus [3]; 3 in the experiment filed under Rattus norvegicus [18]; 5 and 6 in the experiment filed under Rattus norvegicus [10]. In addition, in the experiment listed under Rattus norvegicus [24], the Total tumors is 5 and 6. Moreover, the Tumor number in the experiment listed under Rattus norvegicus [17] was 1; in the experiment filed under Rattus norvegicus [6] it was 1; in the experiment filed under Rattus norvegicus [7], 1.4; in the experiment listed under Rattus norvegicus [9] it was 1 and 1.2; in the experiment filed under Rattus norvegicus [14], 1; in the experiment listed under Rattus norvegicus [21] it was 1.3 and 1.4. Also, the Tumor number in the experiment filed under Rattus norvegicus [22] was 2.5. For the same compound, the Tumor mass was 0.5 g in the experiment filed under Rattus norvegicus [4]; 0.5 g and 0.4 g in the experiment listed under Rattus norvegicus [5]; 0.3 g in the experiment listed under Rattus norvegicus [19]; 0.5 g and 0.6 g in the experiment listed under Rattus norvegicus [20]; 1.2 g in the experiment listed under Rattus norvegicus [12]; 0.8 g and 0.6 g in the experiment listed under Rattus norvegicus [15]. In the experiment filed under Rattus norvegicus [23], this compound displayed a Tumor mass of 5 g.

For the compound `CC(C)[C@@H]1C(=O)N2CCC[C@H]2[C@]2(O)O[C@](NC(=O)[C@@H]3C=C4c5cccc6[nH]cc(c56)C[C@H]4N(C)C3)(C(C)C)C(=O)N12.O=C(O)/C=C\C(=O)O`, the Total tumors is reported as 6 in the experiment listed under Rattus norvegicus [2]; 8 in the experiment filed under Rattus norvegicus [10]; 16 in the experiment listed under Rattus norvegicus [27]; 12 in the experiment listed under Rattus norvegicus [30]; 5 in the experiment listed under Rattus norvegicus [24]. Also, the Tumor mass in the experiment listed under Rattus norvegicus [5] turned out to be 0.8 g; in the experiment listed under Rattus norvegicus [25] it was 1.7 g; in the experiment filed under Rattus norvegicus [20] it was 0.4 g; in the experiment listed under Rattus norvegicus [15], 0.4 g; in the experiment listed under Rattus norvegicus [29] it was 0.4 g. For the same compound, the Tumor number in the experiment filed under Rattus norvegicus [7] amounted to 1.2; in the experiment listed under Rattus norvegicus [9] it was 1.6; in the experiment filed under Rattus norvegicus [26], 1.3; in the experiment filed under Rattus norvegicus [21], 1.3; in the experiment listed under Rattus norvegicus [28] it was 1.9.

`CC(=O)[C@H]1CC[C@H]2[C@@H]3CCC4=CC(=O)CC[C@]4(C)[C@H]3CC[C@]12C.CC(C)[C@@H]1C(=O)N2CCC[C@H]2[C@]2(O)O[C@](NC(=O)[C@@H]3C=C4c5cccc6[nH]cc(c56)C[C@H]4N(C)C3)(C(C)C)C(=O)N12.O=C(O)/C=C\C(=O)O`: the Tumor number amounted to 1 in the experiment filed under Rattus norvegicus [31]; 1.3 in the experiment filed under Rattus norvegicus [8]; 1.2 in the experiment listed under Rattus norvegicus [9]; 1.5 in the experiment filed under Rattus norvegicus [33]; 1.7 in the experiment listed under Rattus norvegicus [36]. Moreover, the Tumor mass in the experiment listed under Rattus norvegicus [32] was found to be 4 g; in the experiment listed under Rattus norvegicus [5], 0.4 g; in the experiment listed under Rattus norvegicus [35], 0.7 g; in the experiment listed under Rattus norvegicus [13], 0.9 g; in the experiment filed under Rattus norvegicus [37] it was 1.5 g. The Total tumors in the experiment listed under Rattus norvegicus [10] was determined as 6; in the experiment filed under Rattus norvegicus [34] it was 4; in the experiment filed under Rattus norvegicus [11], 4; in the experiment listed under Rattus norvegicus [38] it was 17; in the experiment listed under Rattus norvegicus [39], 15.
